From patent US20210346312A1, “Flat Product for Microbiological Sanitation of the Urogenital Tract” (Tecuro Medical GmbH, priority 2018, published 2021)

System: Reconstituted human 3D EpiVaginal models
Experiment: Cytotoxicity test (MTT assay, based on DIN ISO 10993-5)
Type: cell-based
Conditions: positive control, 1%, typical value
Procedure: To determine the compatibility of a planar product for treatment of the urogenital tract, the Cytotoxicity Test described below can be used. It is based on the standard DIN ISO 10993-5.
Reconstituted human 3D EpiVaginal models (e.g., MatTek) are used. To this end, an element of 6 mm in diameter from a planar product according to the invention is topically applied to the 3D EpiVaginal skin models and incubated on the models for 3 and 18 hours. Skin models treated with sterile water are used as negative control, and skin models treated with the […] surfactant Triton X-100 (1%) are used as positive control. The vitality of the skin models is evaluated in the MTT assay (3-(4,5-dimethylthiazol-2-yl)-2,5-diphenyltetrazolium bromide) (see Stockert et al. Acta Histochemica 120: 159-167 (2018), doi: 10.1016/j.acthis.2018.02.005; Chacon et al. In Vitro Methods in Pharmaceutical Research, ISBN 9780080534602 and https://en.wikipedia.org/wiki/MTT_assay). This involves setting the vitality value of the negative control to 100%. […] According to the invention, what is considered to be an acceptable value is typically a vitality of >80% after 18 h.

With Triton X-100 the “vitality after 3 h of incubation” value (3 h) was 25% and the “vitality after 18 h” value (18 h) was “less than 10%”.
